In ChEMBL document CHEMBL1201862, “PubChem BioAssay data set” (2004):
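These data come from cells grown in 96-well plates and exposed to compound for 48 hours at five concentrations. The concentration for 50% growth inhibition is given as GI50.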 Active and inactive are the calls of the source. Cut-off read from the data, not from the text of the source: active = GI50 up to about 1.1 µM and inactive = higher.

Legend:
Assay in all cases: NCI anticancer screen, dose series, 48 h
[1] = test system: 786-0
[2] = test system: A549
[3] = test system: ACHN
[4] = test system: HCT-116
[5] = test system: HOP-62
[6] = test system: M14
[7] = test system: MDA-MB-435
[8] = test system: NCI-H23
[9] = test system: NCI-H522
[10] = test system: OVCAR-4
[11] = test system: OVCAR-5
[12] = test system: PC-3
[13] = test system: RPMI-8226
[14] = test system: SK-MEL-5
[15] = test system: SK-OV-3
[16] = test system: SR
[17] = test system: SW-620
[18] = test system: UACC-62
[19] = test system: BT-549
[20] = test system: HCC 2998

Measured: GI50

c1ccc2cc3c(NC4=NCCO4)cccc3cc2c1
inactive: [1] 57 µM | [2] > 100 µM | [3] 68.1 µM | [4] 50 µM | [5] > 100 µM | [6] 34.3 µM | [7] 37.1 µM | [8] 32.9 µM | [9] > 100 µM | [10] 35.6 µM | [11] > 100 µM | [12] 45.1 µM | [13] 39 µM | [14] 35 µM | [15] > 100 µM | [16] 36 µM | [17] > 100 µM | [18] > 100 µM

CCCCc1nc(C)oc1C(C)C
inactive: [1] > 100 µM | [2] > 100 µM | [3] > 100 µM | [19] > 100 µM | [20] > 100 µM | [4] > 100 µM | [5] > 100 µM | [6] > 100 µM | [7] > 100 µM | [8] > 100 µM | [9] > 100 µM | [10] > 100 µM | [11] > 100 µM | [12] > 100 µM | [14] > 100 µM | [15] > 100 µM | [17] > 100 µM | [18] > 100 µM

CCN(CC)CCNc1n[n+]([O-])c2ccccc2[n+]1[O-]
inactive: [1] 7.85 µM | [3] 2.95 µM | [19] 16.4 µM | [20] 2.07 µM | [4] 7.73 µM | [5] 5.11 µM | [6] 6.7 µM | [7] 12.5 µM | [11] 13.2 µM | [12] 5.78 µM | [13] 4.48 µM | [14] 1.59 µM | [15] 4 µM | [17] 12 µM | [18] 4.8 µM

CCN(CC)c1cc2c3c(c1)CCCN3CCC2
inactive: [1] > 10 µM | [2] > 10 µM | [3] > 10 µM | [20] > 10 µM | [4] > 10 µM | [5] > 10 µM | [6] > 10 µM | [7] > 10 µM | [8] > 10 µM | [9] > 10 µM | [10] > 10 µM | [12] > 10 µM | [13] > 10 µM | [14] > 10 µM | [15] > 10 µM | [16] > 10 µM | [17] > 10 µM | [18] > 10 µM

CC[C@H]1C[C@@H](O)[C@@H]2[C@H](O)[C@H](O)CN2C1
inactive: [1] > 100 µM | [2] > 100 µM | [3] > 100 µM | [20] > 100 µM | [4] > 100 µM | [6] > 100 µM | [7] > 100 µM | [9] > 100 µM | [10] > 100 µM | [11] > 100 µM | [12] > 100 µM | [13] > 100 µM | [14] > 100 µM | [15] > 100 µM | [17] > 100 µM

O=C(OCC1OC(c2nn[nH]n2)C(OC(=O)c2ccccc2)C1OC(=O)c1ccccc1)c1ccccc1 (stereo not given)
inactive: [1] > 100 µM | [2] > 100 µM | [3] > 100 µM | [19] > 100 µM | [20] > 100 µM | [4] > 100 µM | [5] > 100 µM | [7] > 100 µM | [8] > 100 µM | [10] > 100 µM | [11] > 100 µM | [12] > 100 µM | [13] 18.6 µM | [14] > 100 µM | [15] > 100 µM | [17] > 100 µM | [18] 53 µM

O=C1N/C(=N/N=C/c2cccs2)N/C1=C\c1ccco1
inactive: [1] 51.6 µM | [2] 33.7 µM | [3] > 100 µM | [19] 70 µM | [4] 35.5 µM | [5] > 100 µM | [6] 8.57 µM | [7] 20.6 µM | [8] 45.3 µM | [9] 7.98 µM | [10] > 100 µM | [11] > 100 µM | [12] 18.9 µM | [13] 23.7 µM | [14] 24.3 µM | [15] 21.9 µM | [17] 30.4 µM | [18] 60.7 µM

O=C1c2ccccc2-c2cc3ccccc3c(=O)n21
inactive: [1] 68.5 µM | [2] > 100 µM | [3] > 100 µM | [20] > 100 µM | [4] > 100 µM | [6] 97.3 µM | [7] > 100 µM | [8] > 100 µM | [9] 15.5 µM | [11] > 100 µM | [12] > 100 µM | [13] 71.1 µM | [14] > 100 µM | [16] > 100 µM | [17] > 100 µM | [18] > 100 µM

COc1cc(C(=O)Nc2cccc3ccccc23)c(Br)c(OC)c1OC
inactive: [1] 1.38 µM | [2] 66.2 µM | [3] 81.7 µM | [20] > 100 µM | [4] 67.9 µM | [5] > 100 µM | [6] > 100 µM | [8] 82 µM | [9] 56.9 µM | [10] 16.5 µM | [11] 64.4 µM | [13] 42.8 µM | [14] 41.1 µM | [15] > 100 µM | [16] > 100 µM | [17] > 100 µM | [18] 45.2 µM

Cc1ccc(Nc2nc(=O)[nH]c(=O)[nH]2)cc1N=[N+]=[N-]
inactive: [1] > 100 µM | [2] > 100 µM | [3] > 100 µM | [19] > 100 µM | [20] > 100 µM | [4] > 100 µM | [5] > 100 µM | [6] > 100 µM | [7] > 100 µM | [8] > 100 µM | [9] > 100 µM | [10] > 100 µM | [11] > 100 µM | [13] > 100 µM | [14] > 100 µM | [15] > 100 µM | [16] > 100 µM | [17] > 100 µM | [18] > 100 µM

CC[C@]1(Cc2ccc(OC)c(OC)c2)CN(S(=O)(=O)c2ccc(C)cc2)C[C@@H]1OC(C)=O
inactive: [1] 39.2 µM | [2] 54.8 µM | [3] > 100 µM | [20] > 100 µM | [5] 33 µM | [6] > 100 µM | [7] > 100 µM | [8] > 100 µM | [10] > 100 µM | [11] > 100 µM | [12] 75.7 µM | [13] > 100 µM | [14] > 100 µM | [15] 64.6 µM | [16] > 100 µM | [17] > 100 µM | [18] > 100 µM

C[S+]([O-])c1ccc(COP(N)(=O)N(CCCl)CCCl)cc1 (stereo not given)
inactive: [1] > 100 µM | [2] > 100 µM | [3] > 100 µM | [20] > 100 µM | [4] > 100 µM | [5] > 100 µM | [6] > 100 µM | [8] > 100 µM | [9] > 100 µM | [10] > 100 µM | [11] > 100 µM | [13] > 100 µM | [14] > 100 µM | [15] > 100 µM | [16] > 100 µM | [17] > 100 µM | [18] > 100 µM
